# How the values were obtained:
# Assay in all cases: relative viability (nuclei count vs DMSO), 5 days (fraction); higher = more cells survive
# [1] = compound: C1=CC(=CC=C1NC(=S)NNC2=C(C=C(C=C2[N+](=O)[O-])C(F)(F)F)[N+](=O)[O-])F [Kobe2602] + O=C(c1cc(Cc2n[nH]c(=O)c3ccccc23)ccc1F)N1CCN(C(=O)C2CC2)CC1 [Olaparib] (partner 8 µM)
# How it was run: (§1)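 Nuclei were stained with Hoechst during a one-step fixation (final 0.05% Triton X-100, 1% formaldehyde, 1 ug/ml Hoechst) carried out 5 days after dosing, then counted on 4× images. The cells, lung cancer lines in 1536-well plates, had been dosed by pin tool the day after seeding with one drug alone or a fixed anchor-drug dose plus five library-drug doses (not always all listed) in √10 steps. Relative viability is the nuclei count in treated wells divided by that in vehicle wells, and each value is the median of duplicate plates.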
# [2] = compound: COc1cc2nccc(Oc3ccc(NC(=O)C4(C(=O)Nc5ccc(F)cc5)CC4)cc3)c2cc1OC [Cabozantinib] + CS(=O)(=O)N1CCN(Cc2cc3nc(-c4cccc5[nH]ncc45)nc(N4CCOCC4)c3s2)CC1 [Pictilisib] (partner 1 µM)
# How it was run: as §1
# [3] = compound: COc1cc2nccc(Oc3ccc(NC(=O)C4(C(=O)Nc5ccc(F)cc5)CC4)cc3)c2cc1OC [Cabozantinib] + Cc1nc(Nc2ncc(C(=O)Nc3c(C)cccc3Cl)s2)cc(N2CCN(CCO)CC2)n1 [Dasatinib] (partner 0.075 µM)
# How it was run: as §1
# [4] = compound: COc1cc2nccc(Oc3ccc(NC(=O)C4(C(=O)Nc5ccc(F)cc5)CC4)cc3)c2cc1OC [Cabozantinib] + NC(=O)Nc1cc(-c2cccc(F)c2)sc1C(=O)N[C@H]1CCCNC1 [AZD7762] (partner 0.2 µM)
# How it was run: as §1
Cell Line,relative viability ([1]; first compound 0.2 µM),relative viability ([1]; first compound 0.6325 µM),relative viability ([1]; first compound 2 µM),relative viability ([1]; first compound 6.325 µM),relative viability ([1]; first compound 20 µM),relative viability ([2]; first compound 0.02 µM),relative viability ([2]; first compound 0.06325 µM),relative viability ([2]; first compound 0.2 µM),relative viability ([2]; first compound 0.6325 µM),relative viability ([2]; first compound 2 µM),relative viability ([3]; first compound 0.02 µM),relative viability ([3]; first compound 0.06325 µM),relative viability ([3]; first compound 0.6325 µM),relative viability ([3]; first compound 2 µM),relative viability ([4]; first compound 0.02 µM),relative viability ([4]; first compound 0.06325 µM),relative viability ([4]; first compound 0.2 µM),relative viability ([4]; first compound 0.6325 µM),relative viability ([4]; first compound 2 µM),relative viability ([3]; first compound 0.2 µM)
EBC-1,0.687,0.684,0.69,0.647,0.759,0.29,0.193,0.169,0.166,0.107,,,,,,,,,,
EKVX,0.749,0.792,0.864,0.786,0.808,0.483,0.448,0.344,0.418,0.367,0.53,0.592,0.488,0.461,0.693,0.856,0.558,0.703,0.763,
EMC-BAC-2,0.511,0.531,0.46,0.559,0.532,0.505,0.566,0.516,0.554,0.542,0.244,0.334,0.292,0.262,0.95,1.26,1.11,1.13,1.13,0.286
EPLC-272H,0.905,0.744,0.578,0.663,0.943,0.192,0.262,0.323,0.356,0.279,0.245,0.403,0.26,0.285,0.237,0.339,0.195,0.207,0.209,0.26
H3255,0.561,0.562,0.515,0.532,0.559,0.473,0.572,,0.466,0.48,0.382,0.513,0.459,0.309,0.938,1.14,,0.911,0.923,
HARA,0.868,1.03,0.914,0.958,0.78,0.315,0.417,0.508,0.474,0.429,0.251,0.312,0.296,0.233,0.291,0.332,,0.339,0.301,0.221
HCC-15,0.691,0.727,0.609,0.742,0.837,0.785,0.762,0.69,0.719,0.799,0.548,0.717,0.568,0.598,1.22,1.27,1.13,1.26,1.19,0.651
HCC-44,0.965,0.983,0.955,0.951,0.898,0.487,0.581,0.6,0.571,0.662,,,,,1.04,1.03,1.08,1.07,1.12,
HCC-78,0.852,0.809,0.904,0.591,0.907,0.178,0.228,0.174,0.177,0.192,,0.431,0.195,0.217,,0.699,0.466,0.46,0.39,0.185
